The values below come from patent publication US4710492A, “3'-azido-2',3'-dideoxy-5-halouridine and its use in treating patients infected with retroviruses” (Yale University, priority 1986, dated 1987).

The test system of one experiment is HTLV-III/LAV/AAV. Briefly: Antiviral activity against HTLV-III/LAV/AAV. It counts as cell-based. Conditions: Human immunodeficiency virus 1; read-out: ID50 HTLV-III/LAV/AAV.
The subject of experiment [1] is Moloney Murine Leukemia Virus. Briefly: Antiviral screening against Moloney Murine Leukemia Virus (MuLV) by XC-Assay. It counts as cell-based. Conditions: read-out: ID50 (Moloney Murine Leukemia Virus). The text has this:
Biological Activity Assay Procedure for Antiviral Screening Against Moloney Murine Leukemia Virus (MuLV) by XC-Assay
The XC assay system is an indirect method for quantitation of murine-leukemia virus (MuLV) originally described by V. Klement et al, Proc. Natl. Acad. Sci., 63, 753, (1969) and modified by W. Rowe et al, Virology, 42, 1136, (1970). This test is based on the development of syncytial changes in the XC cell line when it is co-cultivated with mouse fibroblast cells (SC-1 cells) productively infected with MuLV. The XC cell line was derived from a rat tumor induced by the prague strain of Rouse Sarcoma Virus (RSV) (J. Svoboda et al, Folia Biol., 9, 77, (1963)).
1E5 SC-1 cells were seeded, in Earls Minimum Essential Medium (EMEM)-10% Fetal Bovine Serum (FBS), onto 60 mm petri dishes. The following day, the cells were inoculated with 0.5 ml of a virus dilution containing 25 μg/ml of DEAE-dextran. The dishes were maintained for 1 hour at 37° C. in a humidified 5% CO2 incubator. The virus inoculum was then removed and replaced with 5 ml of medium containing appropriate concentration of the test compound (two dishes/concentration). Medium containing 5% FBS was added to the virus control dishes. The medium (with or without the test compound) was changed at 48 hours.
Five days after virus inoculation, the culture fluid was decanted and the cells were irradiated with a GE germicidal bulb for 30 seconds (1500-1800 ergs UV-light). Cultures were immediately overlaid with 2E5 XC cells in 5 ml of EMEM-10% FBS/dish. The medium was changed at 2 day intervals. Four days after XC cell addition, cultures were simultaneously fixed and stained with GEIMSA for 10 to 15 minutes.
Plaques were counted using an inverted microscopy as holes in the cell sheet containing syncytial cells, or as focal masses of multinucleated giant cells.
Calculation of % Inhibition/Concentration: [formula] ID50: Accumulative % Inhibition using Reed-Muench Method

Another experiment has as its system HTLV III/LAV. The note with it: in vitro; Mitsuya et al. 1985; cited from earlier work.
[2] abbreviates: SC1, XC-assay, SC-1 mouse fibroblast cells co-cultivated with XC cells, Reed-Muench Method.

Molecules are shown by their SMILES. Like-named read-outs stand apart in the source and are kept apart here.

For the compound `[N-]=[N+]=N[C@H]1C[C@H](n2cc(Br)c(=O)[nH]c2=O)O[C@@H]1CO` [3'-N3 --BUdR, 3'-azido-2',3'-dideoxy-5-bromouridine], the values for the IC50 (in the experiment on HTLV-III/LAV/AAV; in experiment [1] (setting [2])) were 2300 nM and 1500 nM, respectively.

In the case of `[N-]=[N+]=N[C@H]1C[C@H](n2cc(I)c(=O)[nH]c2=O)O[C@@H]1CO` [3'-N3 --IUdR, 3'-azido-2',3'-dideoxy-5-iodouridine], the IC50 in experiment [1] (setting [2]) is 3000 nM.

Regarding `Cc1cn([C@H]2C[C@H](N=[N+]=[N-])[C@@H](CO)O2)c(=O)[nH]c1=O` [3'-azido-3'-deoxythymidine], the IC50 in the experiment on HTLV-III/LAV/AAV was determined as 230 nM. In addition, the IC50 in experiment [1] (SC1, Fibroblast) is 23 nM. Further, in the experiment with HTLV III/LAV, the “HTLV III/LAV replication” value is “inhibit HTLV III/LAV replication” and the “cytopathic effects of HTLV III/LAV” value is “block the cytopathic effects”.
